Values quoted from earlier work, collected in patent publication US20240228966A1, “UROLITHIN FOR INCREASING STEM CELL FUNCTION” (SOCIETE DES PRODUITS NESTLE S.A., priority 2021, published 2024).

Tested on: human HSCs
Conditions: culture media supplemented with nicotinamide riboside; cited from earlier work

For `NC(=O)c1ccc[n+]([C@@H]2O[C@H](CO)[C@@H](O)[C@H]2O)c1` [nicotinamide riboside], the “levels of engraftment in recipient humanised mice” value is given as “significantly higher levels of engraftment”.
